Laboratory results from PubChem BioAssay (NCI).
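96-well plates; 48 h exposure; 5 concentrations. Endpoints by linear interpolation between flanking doses. Not reached: highest tested concentration assigned. TGI: total growth inhibition.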

How the values were obtained:
Test in all cases: NCI tumour cell line growth inhibition, 48 h
[1] = system: SK-MEL-2 melanoma
[2] = system: CAKI-1 renal
[3] = system: DU-145 prostate
[4] = system: HCC-2998 colon
[5] = system: CCRF-CEM leukemia
[6] = system: SNB-75 CNS
[7] = system: OVCAR-5 ovarian
[8] = system: A498 renal
[9] = system: NCI/ADR-RES ovarian
[10] = system: SK-OV-3 ovarian
[11] = system: UACC-62 melanoma
[12] = system: UACC-257 melanoma
[13] = system: BT-549 breast
[14] = system: SW-620 colon
[15] = system: HT29 colon
[16] = system: MDA-MB-231 breast
[17] = system: UO-31 renal
[18] = system: HCT-116 colon
[19] = system: RPMI-8226 leukemia
[20] = system: T-47D breast
[21] = system: PC-3 prostate
[22] = system: HCT-15 colon
[23] = system: COLO 205 colon
[24] = system: HL-60(TB) leukemia
[25] = system: NCI-H460 lung
[26] = system: NCI-H226 lung
[27] = system: SN12C renal
[28] = system: EKVX NSCLC
[29] = system: OVCAR-3 ovarian
[30] = system: SF-268 CNS
[31] = system: NCI-H522 lung
[32] = system: ACHN renal
[33] = system: SK-MEL-5 melanoma
[34] = system: SNB-19 CNS
[35] = system: M14 melanoma
[36] = system: MOLT-4 leukemia
[37] = system: RXF 393 renal
[38] = system: 786-0 renal
[39] = system: A549 NSCLC
[40] = system: SR leukemia
[41] = system: MCF7 breast
[42] = system: MALME-3M melanoma
[43] = system: TK-10 renal
[44] = system: SF-539 CNS
[45] = system: SF-295 CNS
[46] = system: K-562 leukemia
[47] = system: OVCAR-4 ovarian
[48] = system: SK-MEL-28 melanoma
[49] = system: HOP-62 NSCLC
[50] = system: HS 578T breast
[51] = system: LOX IMVI melanoma
[52] = system: OVCAR-8 ovarian
[53] = system: KM12 colon
[54] = system: MDA-MB-435
[55] = system: U251 CNS
[56] = system: IGROV1 ovarian
[57] = system: NCI-H23 lung

With O=[Se](O)O the TGI [1] was > 39.4 µM, the TGI [2] was 97.1 µM and the TGI [3] was 10.8 µM. The TGI [4] was > 100 µM, the TGI [5] was > 100 µM and the TGI [6] was 7.55 µM. For the same compound, the TGI [7] was 4.82 µM, the TGI [8] was > 100 µM and the TGI [9] was > 54.9 µM. The TGI [10] was 12.8 µM, the TGI [11] was 4.66 µM and the TGI [12] was > 100 µM. The TGI [13] was 39 µM, the TGI [14] was > 100 µM and the TGI [15] was > 91.8 µM. The TGI [16] was 3.05 µM, the TGI [17] was 7.36 µM and the TGI [18] was 15.6 µM. The TGI [19] was > 100 µM, the TGI [20] was > 62.9 µM and the TGI [21] was 7.63 µM. The TGI [22] was > 100 µM, the TGI [23] was > 60.3 µM and the TGI [24] was > 100 µM. For the same compound, the TGI [25] was > 49.9 µM, the TGI [26] was 2.48 µM and the TGI [27] was > 100 µM. The TGI [28] was 15.7 µM, the TGI [29] was 10.7 µM and the TGI [30] was 4.94 µM. For the same compound, the TGI [31] was 39 µM, the TGI [32] was 76.6 µM and the TGI [33] was 8.68 µM. The TGI [34] was > 22 µM, the TGI [35] was 23.4 µM and the TGI [36] was > 100 µM. The TGI [37] was 10.3 µM, the TGI [38] was 7.35 µM and the TGI [39] was > 100 µM. The TGI [40] was > 28.6 µM, the TGI [41] was > 100 µM and the TGI [42] was > 100 µM. The TGI [43] was > 100 µM, the TGI [44] was 2.56 µM and the TGI [45] was 1.7 µM. The TGI [46] was > 100 µM, the TGI [47] was 21.1 µM and the TGI [48] was 26.8 µM. For the same compound, the TGI [49] was 1.95 µM, the TGI [50] was > 100 µM and the TGI [51] was > 100 µM. The TGI [52] was 8.83 µM, the TGI [53] was > 64.6 µM and the TGI [54] was > 100 µM. For the same compound, the TGI [55] was 2.82 µM, the TGI [56] was 2.43 µM and the TGI [57] was > 94.4 µM.
